Data from patent publication US20260015325A1, “ALKOXY HETEROARYL- CARBOXAMIDE OR THIOAMIDE COMPOUNDS” (SYNGENTA CROP PROTECTION AG, priority 2022, published 2026).

Key:
Format in all cases: in vivo
[1] = system: Myzus persicae (Green Peach Aphid); experiment: Myzus persicae (Green Peach Aphid): feeding/contact activity, eggplant leaf discs; conditions: foliar, 144 h, application rate of 200 ppm, mixed ages on sprayed eggplant leaf discs, 6 days after infestation, read-out: growth inhibition
Description: (§1) Example B12: Myzus persicae (Green Peach Aphid) Feeding/Contact Activity Eggplant leaf discs were placed onto agar in a 24-well microtiter plate and sprayed with aqueous test solutions prepared from 10′000 ppm DMSO stock solutions. After drying, the leaf discs were infested with an aphid population of mixed ages. The samples were assessed for mortality 6 days after infestation.

[2] = system: Myzus persicae (Green Peach Aphid); experiment: Myzus persicae (Green Peach Aphid): intrinsic activity, sucrose solution; conditions: 120 h, test rate of 12 ppm, intrinsic, mixed with sucrose solution under Parafilm, 5 days after infestation, read-out: mortality
Outline: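 Compounds from 10′000 ppm DMSO stocks mixed with sucrose solution in wells sealed with Parafilm; aphid-infested pea seedlings placed on the Parafilm and the assembly inverted so aphids feed through the membrane. Mortality assessed 5 days after infestation.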

[3] = system: Myzus persicae (Green Peach Aphid); experiment: Myzus persicae (Green Peach Aphid): feeding/contact activity, sunflower leaf discs; conditions: foliar, 144 h, application rate of 200 ppm, mixed ages on sprayed sunflower leaf discs, 6 days after infestation, read-out: mortality
Description: Example B6: Myzus persicae (Green Peach Aphid): Feeding/Contact Activity
as §1, with “Sunflower” for “Example B12: Myzus persicae (Green Peach Aphid) Feeding/Contact Activity Eggplant”

[4] = system: Plutella xylostella (Diamond Back Moth); experiment: Plutella xylostella (Diamond Back Moth), artificial diet; conditions: 192 h, application rate of 200 ppm, eggs on treated artificial diet, 8 days after infestation, read-out: effect in at least one of the two categories (mortality or growth inhibition)
Description: Example B9: Plutella xylostella (Diamond Back Moth)
24-well microtiter plates with artificial diet were treated with aqueous test solutions prepared from 10′000 ppm DMSO stock solutions by pipetting. After drying, Plutella eggs were pipetted through a plastic stencil onto a gel blotting paper and the plate was closed with it. The samples were assessed for mortality and growth inhibition in comparison to untreated samples 8 days after infestation.

[5] = system: Euschistus heros (Neotropical Brown Stink Bug); experiment: Euschistus heros (Neotropical Brown Stink Bug), soybean leaves; conditions: 120 h, application rate of 200 ppm, N2 nymphs on sprayed soybean leaves, 5 days after infestation, read-out: effect in at least one of the two categories (mortality or growth inhibition)
Description: Example B4: Euschistus heros (Neotropical Brown Stink Bug)
Soybean leaves on agar in 24-well microtiter plates were sprayed with aqueous test solutions prepared from 10′000 ppm DMSO stock solutions. After drying the leaves were infested with N2 nymphs. The samples were assessed for mortality and growth inhibition in comparison to untreated samples 5 days after infestation.

[6] = system: Diabrotica balteata (Corn Root Worm); experiment: whole plant or invertebrate; conditions: 96 h, application rate of 200 ppm, L2 larvae on sprayed maize sprouts, 4 days after infestation, read-out: effect in at least one of the two categories (mortality or growth inhibition)
Description: Example B3: Diabrotica balteata (Corn Root Worm)
Maize sprouts placed onto an agar layer in 24-well microtiter plates were treated with aqueous test solutions prepared from 10′000 ppm DMSO stock solutions by spraying. After drying, the plates were infested with L2 larvae (6 to 10 per well). The samples were assessed for mortality and growth inhibition in comparison to untreated samples 4 days after infestation.

[7] = system: Bemisia tabaci (Cotton White Fly); experiment: Bemisia tabaci (Cotton White Fly): feeding/contact activity, cotton leaf discs; conditions: foliar, 144 h, application rate of 200 ppm, adult white flies on sprayed cotton leaf discs, 6 days after incubation, read-out: mortality
Description: Example B1: Bemisia tabaci (Cotton White Fly): Feeding/Contact Activity
Cotton leaf discs were placed on agar in 24-well microtiter plates and sprayed with aqueous test solutions prepared from 10′000 ppm DMSO stock solutions. After drying the leaf discs were infested with adult white flies. The samples were checked for mortality 6 days after incubation.

[8] = system: Myzus persicae (Green Peach Aphid); experiment: Myzus persicae (Green Peach Aphid): systemic activity, pea seedlings; conditions: 144 h, test rate of 24 ppm, systemic, roots of infested pea seedlings in test solution, 6 days, read-out: mortality
Description: Example B7: Myzus persicae (Green Peach Aphid). Systemic Activity
Roots of pea seedlings infested with an aphid population of mixed ages were placed directly into aqueous test solutions prepared from 10′000 DMSO stock solutions. The samples were assessed for mortality 6 days after placing seedlings into test solutions.

[9] = system: Frankliniella occidentalis (Western Flower Thrips); experiment: Frankliniella occidentalis (Western Flower Thrips): feeding/contact activity, sunflower leaf discs; conditions: foliar, 168 h, application rate of 200 ppm, mixed ages on sprayed sunflower leaf discs, 7 days after infestation
Description: Example B5: Frankliniella occidentalis (Western Flower Thrips): Feeding/Contact Activity
Sunflower leaf discs were placed on agar in 24-well microtiter plates and sprayed with aqueous test solutions prepared from […] stock solutions. After drying the leaf discs were infested with a Frankliniella population of mixed ages. The samples were assessed for mortality 7 days after infestation.

[10] = system: Tetranychus urticae (Two-Spotted Spider Mite); experiment: whole plant or invertebrate; conditions: foliar, 192 h, application rate of 200 ppm, mixed population (mobile stages) on sprayed bean leaf discs, 8 days after infestation, read-out: mortality
Description: Example B11: Tetranychus urticae (Two-Spotted Spider Mite): Feeding/Contact Activity
Bean leaf discs on agar in 24-well microtiter plates were sprayed with aqueous test solutions prepared from 10′000 ppm DMSO stock solutions. After drying the leaf discs were infested with a mite population of mixed ages. The samples were assessed for mortality on mixed population (mobile stages) 8 days after infestation.

[11] = system: Spodoptera littoralis; experiment: Spodoptera littoralis (Egyptian Cotton Leaf Worm), cotton leaf discs; conditions: foliar, 72 h, application rate of 200 ppm, L1 larvae on sprayed cotton leaf discs, 3 days after infestation, read-out: control (at least one of mortality, anti-feedant effect, growth inhibition)
Description: Example B10: Spodoptera littoralis (Eaytian Cotton Leaf Worm)
Cotton leaf discs were placed onto agar in 24-well microtiter plates and sprayed with aqueous test solutions prepared from 10′000 ppm DMSO stock solutions. After drying the leaf discs were infested with five L1 larvae. The samples were assessed for mortality, anti-feeding effect, and growth inhibition in comparison to untreated samples 3 days after infestation. Control of Spodoptera littoralis by a test sample is given when at least one of the categories mortality, anti-feedant effect, and growth inhibition is higher than the untreated sample.

[12] = system: Chilo suppressalis (Striped Rice Stemborer); experiment: Chilo suppressalis (Striped Rice Stemborer), artificial diet; conditions: 144 h, application rate of 200 ppm, L2 larvae on treated artificial diet, 6 days after infestation, read-out: control (at least one of mortality, anti-feedant effect, growth inhibition)
Description: Example B2: Chilo suppressalis (Striped Rice Stemborer)
24-well microtiter plates with artificial diet were treated with aqueous test solutions prepared from 10′000 ppm DMSO stock solutions by pipetting. After drying, the plates were infested with L2 larvae (6-8 per well). The samples were assessed for mortality, anti-feeding effect, and growth inhibition in comparison to untreated samples 6 days after infestation. Control of Chilo suppressalis by a test sample is given when at least one of the categories mortality, anti-feedant effect, and growth inhibition is higher than the untreated sample.

C[C@@H](COc1cc(C(=O)NC2(C#N)CC2)c(Cl)nn1)NS(=O)(=O)C(F)(F)F [Compound P89, 3-chloro-N-(1-cyanocyclopropyl)-6-[(2S)-2-(trifluoromethylsulfonylamino)propoxy]pyridazine-4-carboxamide]
≥ 80%: inhibition at 200 ppm [1]

C[C@@H](COc1cnc(Cl)c(C(=O)NC2CC2)c1)NS(=O)(=O)C(F)(F)F [Compound P-1, 2-chloro-N-cyclopropyl-5-[(2S)-2-(trifluoromethylsulfonylamino)propoxy]pyridine-3-carboxamide]
≥ 80%: mortality at 12 ppm [2] | mortality at 200 ppm [3] | percent effect (mortality or growth inhibition) at 200 ppm [4] | percent effect (mortality or growth inhibition) at 200 ppm [5] | percent effect (mortality or growth inhibition) at 200 ppm [6] | mortality at 200 ppm [7] | mortality at 24 ppm [8] | mortality at 200 ppm [9] | mortality at 200 ppm [10]

C[C@@H](COc1cnc(Cl)c(C(=O)NC2(C#N)CC2)c1)NS(=O)(=O)C(F)(F)F [Compound P-2, 2-chloro-N-(1-cyanocyclopropyl)-5-[(2S)-2-(trifluoromethylsulfonylamino)propoxy]pyridine-3-carboxamide]
≥ 80%: mortality at 12 ppm [2] | mortality at 200 ppm [3] | percent control (mortality, anti-feedant effect or growth inhibition) at 200 ppm [11] | percent effect (mortality or growth inhibition) at 200 ppm [5] | percent effect (mortality or growth inhibition) at 200 ppm [6] | percent control (mortality, anti-feedant effect or growth inhibition) at 200 ppm [12] | mortality at 200 ppm [7] | mortality at 24 ppm [8] | mortality at 200 ppm [9]

C[C@@H](COc1cnc(Cl)c(C(=O)NC2(C#N)CC2)c1)N(C)S(=O)(=O)C(F)(F)F [Compound P-7, 2-chloro-N-(1-cyanocyclopropyl)-5-[(2S)-2-[methyl(trifluoromethylsulfonyl)amino]propoxy]pyridine-3-carboxamide]
≥ 80%: mortality at 12 ppm [2] | percent effect (mortality or growth inhibition) at 200 ppm [6] | mortality at 200 ppm [7] | mortality at 24 ppm [8] | mortality at 200 ppm [9]

C[C@@H](COc1cnc(Cl)c(C(=O)Nc2ccc(C#N)cc2F)c1)NS(=O)(=O)C(F)(F)F [Compound P-22, 2-chloro-N-(4-cyano-2-fluoro-phenyl)-5-[(2S)-2-(trifluoromethylsulfonylamino)propoxy]pyridine-3-carboxamide]
≥ 80%: percent effect (mortality or growth inhibition) at 200 ppm [6] | mortality at 200 ppm [10]

Cc1cc(F)ccc1NC(=O)c1cc(OC[C@H](C)NS(=O)(=O)C(F)(F)F)cnc1Cl [Compound P-60, 2-chloro-N-(4-fluoro-2-methyl-phenyl)-5-[(2S)-2-(trifluoromethylsulfonylamino)propoxy]pyridine-3-carboxamide]
≥ 80%: mortality at 12 ppm [2] | percent control (mortality, anti-feedant effect or growth inhibition) at 200 ppm [11] | percent effect (mortality or growth inhibition) at 200 ppm [4] | mortality at 200 ppm [10]

COCN([C@@H](C)COc1cnc(Cl)c(C(=O)NCC(F)(F)F)c1)S(=O)(=O)C(F)(F)F [Compound P-63, 2-chloro-5-[(2S)-2-[methoxymethyl(trifluoromethylsulfonyl)amino]propoxy]-N-(2,2,2-trifluoroethyl)pyridine-3-carboxamide]
≥ 80%: mortality at 12 ppm [2] | percent effect (mortality or growth inhibition) at 200 ppm [5] | percent control (mortality, anti-feedant effect or growth inhibition) at 200 ppm [12] | mortality at 200 ppm [7] | mortality at 200 ppm [10]

COCN([C@@H](C)COc1cnc(Cl)c(C(=O)NC2CC2)c1)S(=O)(=O)C(F)(F)F [Compound P-64, 2-chloro-N-cyclopropyl-5-[(2S)-2-[methoxymethyl(trifluoromethylsulfonyl)amino]propoxy]pyridine-3-carboxamide]
≥ 80%: mortality at 12 ppm [2] | mortality at 200 ppm [3] | percent effect (mortality or growth inhibition) at 200 ppm [5] | percent effect (mortality or growth inhibition) at 200 ppm [6] | mortality at 200 ppm [7] | mortality at 24 ppm [8] | mortality at 200 ppm [9] | mortality at 200 ppm [10]

CCN1OC[C@@H](NC(=O)c2cc(OC[C@H](C)NS(=O)(=O)C(F)(F)F)cnc2Cl)C1=O [Compound P-65, 2-chloro-N-[(4R)-2-ethyl-3-oxo-isoxazolidin-4-yl]-5-[(2S)-2-(trifluoromethylsulfonylamino)propoxy]pyridine-3-carboxamide]
≥ 80%: percent control (mortality, anti-feedant effect or growth inhibition) at 200 ppm [11] | mortality at 200 ppm [10]

CCN1OC[C@@H](NC(=O)c2cc(OC[C@H](C)NS(=O)(=O)C(F)(F)F)ncc2Br)C1=O [Compound P-84, 5-bromo-N-[(4R)-2-ethyl-3-oxo-isoxazolidin-4-yl]-2-[(2S)-2-(trifluoromethylsulfonylamino)propoxy]pyridine-4-carboxamide]
≥ 80%: percent effect (mortality or growth inhibition) at 200 ppm [6]
